Assay results: ChEMBL document CHEMBL3272278, “Electronic factors in the structure-activity relationship of some 1,4-benzodiazepin-2-ones” (1977)
The source made the active and inactive calls. The calls are words filed in the database; no cut-off is given here.

Columns and labels:
[1] = species on record: Mus musculus; test: Taming activity in mouse assessed as suppression of electrical current-induced aggressive behavior by foot-shock test; format: functional
[2] = species on record: Felis catus; test: Sedative activity in cat; format: functional, organism-based
[3] = species on record: Felis catus; test: Muscle relaxant activity in cat suspended by scruff of neck assessed as relaxation of body and hind legs; format: functional
[4] = species on record: Mus musculus; test: Muscle relaxant activity in mouse; format: functional
[5] = species on record: Mus musculus; test: Sedative activity in mouse; format: functional
[6] = species on record: Mus musculus; test: Anticonvulsion activity in mouse assessed as protection against pentylenetetrazole-induced convulsion; format: functional

Structure (SMILES)	Activity [1]	Activity [2]	Activity [3]	Activity [4]	Activity [5]	Activity [6]	log(1/ED50) [6]	log(1/MED) [3]	log(1/ED50) [4]	log(1/ED50) [5]	log(1/MED) [1]	ED50 ([1]; Mus musculus) [mg/kg]	ED50 ([6]; Mus musculus) [mg/kg]
O=C1CN=C(c2ccc(F)cc2)c2cc(Cl)ccc2N1	inactive	inactive	inactive	inactive	inactive	inactive							
O=C1CN=C(c2ccc(Cl)cc2Cl)c2cc(Cl)ccc2N1	inactive	inactive	inactive	inactive	inactive		-0.3724						
C[S+]([O-])c1ccc2c(c1)C(c1ccccc1)=NCC(=O)N2 (stereo not given)	inactive						1.0764	1.8722	0.2313	0.2313			
O=C1CN=C(c2ccccc2Cl)c2cc([N+](=O)[O-])ccc2N1 [CLONAZEPAM]				inactive	inactive		3.2948	3.8			1.1979		
Cc1cc([N+](=O)[O-])cc2c1NC(=O)CN=C2c1ccccc1							1.5613	2.7709	1.1688	1.1688	1.1688		
CN1C(=O)CN=C(c2ccccc2F)c2cc(Cl)ccc21 [FLUDIAZEPAM]							2.8766	3.7817	1.4807	1.4807	1.7817		
CN1C(=O)CN=C(c2ccccc2)c2cc(C#N)ccc21							2.4393	2.7404	1.1382	1.1382	1.7404		
CN1C(=O)CN=C(c2ccccc2F)c2ccccc21 [RO-054520]							1.525	2.4281	0.1271	0.1271	0.8261		
CN1C(=O)CN=C(c2ccccc2Cl)c2cc([N+](=O)[O-])ccc21 [RO-054082]							3.4386	3.8188	1.0407	1.0407	2.1198		
Cc1ccccc1C1=NCC(=O)Nc2ccc(Cl)cc21							1.5675	2.755	0.2779	0.2779	0.454		
O=C1CN=C(c2ccccc2)c2cc(Br)ccc2N1							2.1971	2.7992	1.1002	1.1002	1.1971		
O=C1CN=C(c2ccccc2)c2cc(Cl)cc(Cl)c2N1	inactive						1.5651	2.1831	0.3081	0.3081			
CSc1ccc2c(c1)C(c1ccccc1)=NCC(=O)N2							1.1493	2.1493	0.2073	0.2073	1.1493		
O=C1CN=C(c2ccccc2Cl)c2cc(Cl)ccc2N1 [DELORAZEPAM]							2.8821	3.4842	0.4842	0.4842	0.8821	2	
O=C1CN=C(c2ccccc2)c2ccccc2N1 [RO-052921]		inactive	inactive			inactive			0.1968	0.1968	0.3729		
COc1ccccc1C1=NCC(=O)Nc2ccc(Cl)cc21							1.6027	2.4778	0.0007	0.0007	0.4778		
O=C1CN=C(c2ccccc2Br)c2cc(Cl)ccc2N1							2.7651	4.0661	0.8443	0.8443	1.8443		

Structure (SMILES)	Activity [1]	Activity [2]	Activity [3]	Activity [4]	Activity [5]	Activity [6]	log(1/ED50) [6]	log(1/MED) [3]	log(1/ED50) [4]	log(1/ED50) [5]	log(1/MED) [1]	ED50 ([1]; Mus musculus) [mg/kg]	ED50 ([6]; Mus musculus) [mg/kg]
O=C1CN=C(c2ccccc2F)c2cc([N+](=O)[O-])ccc2N1							2.4934	3.7767	1.8736	1.8736	2.1746		0.3
O=C1CN=C(c2cccc(F)c2)c2cc(Cl)ccc2N1							1.8368	2.159	0.159	0.159	0.858		
CN1C(=O)CN=C(c2ccccc2Cl)c2cc(Cl)ccc21							2.8804	3.5037	0.9016	0.9016	1.5037		
CN1C(=O)CN=C(c2ccccc2F)c2cc([N+](=O)[O-])ccc21 [FLUNITRAZEPAM]							2.4164	4.1945	2.4955	2.4955	2.5925		
O=C1CN=C(c2ccccc2F)c2cc(Cl)ccc2N1 [N-DESALKYL-2-OXOQUAZEPAM]							3.4601	3.7611	0.858	0.858	1.7611		
O=C1CN=C(c2ccccc2)c2cc(C(F)(F)F)ccc2N1 [RO-052904]							2.4829	3.4829	1.4829	1.4829	1.4829		
N#Cc1ccc2c(c1)C(c1ccccc1)=NCC(=O)N2							2.3027	2.7177	0.5416	0.5416	0.8146		
CN1C(=O)CN=C(c2ccccc2)c2cc(Cl)ccc21 [DIAZEPAM]							2.3079	3.153	0.9769	0.9769	1.454		
CN(C)c1ccc2c(c1)C(c1ccccc1)=NCC(=O)N2C							1.6887	2.4669	0.2908	0.2908	0.8648		
O=C1CN=C(c2ccccc2C(F)(F)F)c2cc(C(F)(F)F)ccc2N1							1.9685	2.8716	1.0934	1.0934	1.2695		
O=C1CN=C(c2ccccc2)c2cc([N+](=O)[O-])ccc2N1 [NITRAZEPAM]							2.7497	3.4487	1.2726	1.2726	1.7497		
CN1C(=O)CN=C(c2ccccc2)c2cc([N+](=O)[O-])ccc21 [NIMETAZEPAM]							2.6917	3.4698	1.4698	1.4698	2.0719		
CN(C)c1ccc2c(c1)C(c1ccccc1Cl)=NCC(=O)N2C							2.8162	1.9131	0.3391	0.3391	0.6121		
CN(C)c1ccc2c(c1)C(c1ccccc1)=NCC(=O)N2	inactive			inactive	inactive		0.8224	1.4456					
CN1C(=O)CN=C(c2ccccc2F)c2cc(F)ccc21	inactive						0.3325	1.7574	0.1457	0.1457			
O=C1CN=C(c2ccccc2C(F)(F)F)c2cc([N+](=O)[O-])ccc2N1							2.6977	3.5424	0.5428	0.5428	1.5428		
